Earlier results as cited in patent US20070071818A1 (ARDANA BIOSCIENCE LIMITED, priority 2002, published 2007).
Structures can show the parent of a compound that is named as a salt.

Tests used:
female sexual response = conditions: female sexual dysfunction
erectile response = conditions: oral administration; psychogenic patient
[1] = tested on: female sexual arousal disorder; conditions: oral; menopausal women with female sexual arousal disorder

CCCc1nn(C)c2c(=O)[nH]c(-c3cc(S(=O)(=O)N4CCN(C)CC4)ccc3OCC)nc12 [sildenafil]
subjective and physiologic parameters of the female sexual response (female sexual response): significantly improve

CN1CCc2cccc3c2[C@H]1Cc1ccc(O)c(O)c1-3 [apomorphine, (6aR)-5,6,6a,7-Tetrahydro-6-methyl-4H-dibenzo[de,g]quinoline-10,11-diol hydrochloride hemihydrate]
erectile response (erectile response): induce an erection

Cc1ccc(N(CC2=NCCN2)c2cccc(O)c2)cc1 [phentolamine]
effect across all measures of arousal [1]: mild positive effect
